Laboratory results taken from US20230341376A1, “SYSTEM, METHOD, AND COMPUTER-ACCESSIBLE MEDIUM FOR PHENOTYPING OF SINGLE CELLS WITH MULTIPLEXED VIBRATIONAL PROBES” (The Trustees of Columbia University in the City of New York, priority 2020, published 2023).

Assays:
Assay type in all cases: cell-based, human
A375 cells = conditions: for metabolic heterogeneity of lipid synthesis activity (Cv of single-cell d-PA metabolites): compared to untreated control group; for d-AA metabolites (protein synthesis activity): compared to untreated group
Description: Deuterated branch-chained amino acids and deuterated palmitic acid were supplemented to the cell culture media for 24 hours in order to probe the flux of protein and lipid synthesis. There can be several considerations for choosing these two types of probes. First, protein and lipids can be the major components of cell dry mass and their metabolism can be tightly regulated. Second, Raman spectra of the metabolites of these two deuterated probes in cells can be shifted to the cell silent region (e.g., 2000 — 2300 cm-1), which facilitated the detection with high sensitivity in a background-free manner. (See, e.g., FIG. 8). Third, compared to non-branch-chained counterparts, branch-chained amino acids were chosen for their narrower Raman spectra in order to have better spectral differences from that of deuterated palmitic acid. (See, e.g., Reference 23; and FIGS. 9). With the high-throughput instrumentation efforts described above, Raman spectra of these two types of probes can be acquired as quickly as 0.5 s for the entire cell with a satisfactory signal to noise ratio. (See, e.g., FIG. 1B).
Previously, the single-cell metabolic measurement has been challenging. Previously-used methods, such as mass spectrometry, can be difficult to reveal single-cell level heterogeneity. (See, e.g., Reference 24). […] However, due to the complex nature of the Raman spectra, it can be difficult to assign each Raman peak in the fingerprint region to a specific chemical compound. (See, e.g., Reference 25). In addition, when dimension reduction approaches such as PCA can be applied, which can be a common practice for data analysis, the physical meanings of the dimension reduced data can be further lost. On the other hand, since the metabolic probes used have distinctive spectra, it can be straightforward to decompose the spectra in order to obtain the concentration information of each individual probe. Here the exemplary MCR-ALS method, (see, e.g., References 26-28), was used to decompose the composite spectra into the pure spectra of the two metabolic probes, and concentration profiles could thereby be obtained.
To validate the ability to reveal metabolic activity, the exemplary MAP was applied to cultured cells treated with drugs that inhibit known metabolism. Five drugs were used as the reference: cycloheximide and blasticidin, both inhibit protein translation; Triacsin C can be an inhibitor of long fatty acyl CoA synthetase; etoposide and cisplatin can be DNA replication inhibitors. MAP probes and individual drugs were added to the seeded A375 cells and allowed to incubate for 24 hours, after which the cells were fixed and Raman spectra were taken from each individual of the fixed single cells. At least 3 batches of each drug were prepared to ensure model robustness and reproducibility. MCR-ALS on the Raman spectra taken with MAP were applied, from which the concentration profiles of d-AA metabolites and d-PA metabolites in every single cell were calculated. (See, e.g., FIG. 2A).
Since MAP measures the metabolic activity in single cells, its potential in quantitatively characterizing single-cell metabolic heterogeneity was determined. The coefficients of variation (“Cv”) of the single-cell d-PA metabolites and d-AA metabolites distribution were calculated from the metabolic inhibitor-treated cells. (See, e.g., Reference 32). The Cv value can be a normalized measure of the dispersion of the single-cell metabolic activity distribution and thus it can be used as a parameter to quantify the metabolic heterogeneity. […] (See, e.g., FIG. 2C). […] (See, e.g., FIG. 2D).
For MAP samples, cells were first seeded in a 24-well plate at 50% confluency with cell culture media and allowed to adhere overnight. Then the culture media was replaced with MAP culture media (see Table 1 below) and cells were further cultured in MAP media for 24 hours. […]

SKBR3 cells = system: SKBR3 cells
Description: Metabolic probes including ^13C-EdU, 17-ODYA, and ^13C-AA were first supplemented to cell culture media for 60 hours to report various metabolic activities. For endocytic profiling, cells were subsequently incubated with three Rdots for 6 hours. Then, seven functionalized Rdots cocktail was pooled to stain cell surface proteins simultaneously. Prior to the spectral acquisition, AltQ2 probe was added to live cells. Single-cell Raman spectra of SKBR3 cells were acquired with 1 second acquisition time (see FIG. 17C). To decipher the contribution of individual Raman probes, the amide region (1500 cm^-1-1700 cm-^1) and cell-silent region (2000 cm^-1 - 2300 cm-^1) were linearly decomposed by using the reference spectral profiles of each probe (see FIG. 17D) (See, e.g., References A54-A56). The unmixing procedure was applied on single-cell Raman spectra (see FIG. 17E). […] (See, e.g., References A25, A26).
Cell-based profiling techniques are increasingly being used in drug discovery to monitor cell response upon drug treatment. (See, e.g., Reference A57). Optical techniques have unique advantages by allowing non-invasive, fast, and cost-effective readouts of individual living cells. (See, e.g., Reference A58). However, most high-content profiling assays have been primarily focusing on partial aspects of biological phenotypes. (See, e.g., Reference A59). Integration of different phenotypes will facilitate a more systematic understanding of the mechanism of drug candidates. (See, e.g., Reference A60). […] Trastuzumab is a HER2-targeted monoclonal antibody developed for clinical use in breast cancer patients. (See, e.g., Reference A61). Hydrogen peroxide (H2O2) is well known as a major member of reactive oxygen species (ROS). (See, e.g., Reference A62). Cycloheximide (CHX) exerts its action by inhibiting protein synthesis. (See, e.g., Reference A63). Cyto D causes the disruption of actin filaments and inhibition of actin polymerization. (See, e.g., Reference A64). Cisplatin is an inhibitor of DNA synthesis and cell growth. (See, e.g., Reference A65). After labeling with 14 Raman probes, single-cell Raman spectra of SKBR3 cells under treatment of five chemotherapy reagents, as well as untreated cells, were acquired through the automated whole-cell Raman micro-spectroscopy (see FIG. 18B).
SKBR3 cells were seeded onto 18 mm round quartz coverslips (Electron Microscopy Sciences, 103302-258) and then maintained in a culture environment for 48 hours to reach 90% confluence. Then the culture medium was replaced with ^13C-AA DMEM containing 200 µM 17-ODYA and 50 nM ^13C-EdU for 60 hours. For the drug testing samples, cells were subject to the drug treatment simultaneously (see Table 5 for specific drug concentration). Followed by three rounds of gentle washing of DPBS buffer, cells were subsequently incubated with three-colored endocytic Rdots at 1 nM in serum-free DMEM medium. 6 hours later, cell surface markers were stained with seven-colored Rdots at a concentration of 10 nM for 1 hour on ice. After that, cells were washed extensively with DPBS buffer with 5 mM MgCl2 and 1% BSA. Then cells were rinsed with DPBS buffer with 5 mM MgCl2 and 40 µM AltQ2 before mounting onto the microscope for Raman measurement. Spectral unmixing was performed through the Least Square Method (LSM).

HeLa cells = assay: Endocytic pathway profiling by Rdots of various sizes and colors, whole-cell Raman
Description: Upon exposure to mammalian cells, PS beads have been reported to enter cells through endocytosis, subsequently reaching the endosomal components. (See, e.g., Reference A40). Although some of the endocytic pathways have been well established, their exact biological roles are still under investigation. (See, e.g., References A41, A42). […] (See, e.g., Reference A43). Motivated by the independent size and color tunability of Rdots, cellular endocytosis pathways were profiled by incubating cells with Rdots of different sizes and colors. Rdots of 40 nm (Rdot2207), 70 nm (Rdot2118), and 120 nm (Rdot2092) in diameter were incubated with HeLa cells, and their Raman peaks are designed to be mutually resolvable.
For whole-cell Raman acquisition, the corresponding Raman intensity is proportional to the number of internalized Rdots, since the Raman intensity of Rdots remains stable after exposed to cellular microenvironments. We therefore quantified the peak intensity to profile the differential mechanism of Rdots internalization. To this end, cells were first pre-treated with one of three inhibitors, chlorpromazine (CPZ), nystatin, and cytochalasin D (Cyto D). CPZ is a cationic amphiphilic drug used to block clathrin-mediated endocytosis. (See, e.g., Reference A44). Nystatin can decompose cholesterol and inhibit caveolae-mediated endocytosis. (See, e.g., Reference A45). Cyto D inhibits the polymerization of actin filaments, which is required for receptor-mediated endocytosis in mammalian cells. (See, e.g., Reference A46). Additionally, cells were incubated at 4° C. to inhibit energy-dependent endocytosis. Then endocytosis was examined by the quantification of internalized Rdots at the single-cell level. A distinctive response of Rdots internalization was detected when treated with various inhibitors (FIGS. 16E-G), and the radar plot was presented to highlight the fold change after inhibition (FIG. 16H). […] (See, e.g., Reference A47). […] (See, e.g., References A48, A49).
FIGS. 16A-16M show exemplary illustration of an exemplary endocytic profiling assay by multi-color Rdots. […] The peak position of each Rdots was indicated by the arrow. Excitation: 532 nm (400 mW), acquisition time: 1 s. FIGS. 16B-16D show exemplary SRS images of cellular distribution for three endocytic Rdots, (B) 40 nm (C) 70 nm (D) 120 nm, scale bar: 10 µm. […] Excitation: 532 nm (400 mW), acquisition time: 1 s. FIGS. 16J-L show exemplary histogram showing the Raman intensity distribution of three endocytic Rdots uptake by HeLa, SKBR3, and COS-7 cells, FIG. 16J - 40 nm, FIG. 16K - 70 nm, and FIG. 16L - 120 nm.

[1] = drug 60 hours, normalized to control

CCC/C=C/C/C=C/C=C/C=N/NN=O [triacsin C, Triacsin C]
metabolic heterogeneity of protein synthesis activity (Cv of single-cell d-AA metabolites) (A375 cells; 24 hours drug, compared to control group): unaltered Cv value | metabolic heterogeneity of lipid synthesis activity (Cv of single-cell d-PA metabolites) (A375 cells; 24 hours drug): did not change the metabolic heterogeneity | d-PA metabolites (lipid synthesis activity) (A375 cells; drug plus MAP probes 24 hours, compared to untreated cells): significant loss | d-AA metabolites (protein synthesis activity) (A375 cells; drug plus MAP probes 24 hours): decrease in protein synthesis activity

OO [H2O2, Hydrogen peroxide]
cellular internalization of Rdots of 70 nm (SKBR3 cells; drug 60 hours): promoted | cellular internalization of Rdots of 120 nm (SKBR3 cells; drug 60 hours): promoted | fatty acid turnover phenotype (17-ODYA probe) (SKBR3 cells; drug 60 hours): retarding their turnover rate | internalization of AltQ2 (SKBR3 cells; drug 60 hours): increased internalization

C[C@@H]1C[C@@H]([C@H](O)CC2CC(=O)NC(=O)C2)C(=O)[C@@H](C)C1 [cycloheximide]
internalization of AltQ2 (SKBR3 cells; drug 60 hours): increased internalization | DNA synthesis (13C-EdU probe) (SKBR3 cells; [1]): interfere with the process other than protein synthesis such as DNA synthesis | metabolic heterogeneity of lipid synthesis activity (Cv of single-cell d-PA metabolites) (A375 cells; 24 hours drug): did not alter the lipid synthesis activity distribution | d-AA metabolites (protein synthesis activity) (A375 cells; drug plus MAP probes 24 hours): significant decrease

C=C1[C@@H](C)[C@H]2[C@H](Cc3ccccc3)NC(=O)[C@]23[C@H](OC(C)=O)/C=C/[C@@](C)(O)C(=O)[C@@H](C)C/C=C/[C@H]3[C@@H]1O [Cyto D, cytochalasin D]
CD44 surface expression (Rdot2079-CD44) (SKBR3 cells; drug 60 hours): suppresses CD44 surface expression | internalization of AltQ2 (SKBR3 cells; drug 60 hours): increased internalization | DNA synthesis (13C-EdU probe) (SKBR3 cells; [1]): inhibits | protein synthesis (13C-AA probe) (SKBR3 cells; [1]): inhibits | cellular internalization of Rdots (SKBR3 cells; long-term drug treatment): promote cellular internalization of Rdots | cellular uptake of Rdots, incubation with inhibitor for 60 hours (HeLa cells; 60 hours): markedly promoted | Rdots internalization, short-term inhibitor incubation (HeLa cells; short-term incubation (6 hours per FIG. 16 legend)): suppressed

CN(CC[C@H](N)CC(=O)N[C@H]1C=C[C@H](n2ccc(N)nc2=O)O[C@@H]1C(=O)O)C(=N)N [blasticidin]
metabolic heterogeneity of lipid synthesis activity (Cv of single-cell d-PA metabolites) (A375 cells; 24 hours drug): did not alter the lipid synthesis activity distribution | d-AA metabolites (protein synthesis activity) (A375 cells; drug plus MAP probes 24 hours): significant decrease

C[C@@H]1[C@H](O)[C@@H](C)/C=C/C=C/CC/C=C/C=C/C=C/C=C/C(O[C@H]2O[C@H](C)[C@@H](O)[C@H](N)[C@@H]2O)CC2O[C@](O)(CC(O)C(O)CCC(O)CC(O)CC(O)CC(=O)O[C@H]1C)CC(O)C2C(=O)O (stereo partly drawn) [nystatin]
internalization of 120 nm Rdots after inhibitor pre-treatment (HeLa cells; Rdot2092 (120 nm)): inhibited | internalization of 70 nm Rdots after inhibitor pre-treatment (HeLa cells; Rdot2118 (70 nm)): inhibited | internalization of 40 nm Rdots after inhibitor pre-treatment (HeLa cells; Rdot2207 (40 nm)): unaltered or even slightly higher | Rdots uptake (40 nm, 70 nm and 120 nm Rdots) after inhibitor pre-treatment (HeLa cells; single-cell Raman intensity of internalized Rdots): decreased as size increases

N.N.[Cl][Pt][Cl] [cisplatin]
metabolic heterogeneity of lipid synthesis activity (Cv of single-cell d-PA metabolites) (A375 cells; 24 hours drug): significantly decreased lipid synthesis heterogeneity

COc1cc([C@@H]2c3cc4c(cc3[C@@H](O[C@@H]3O[C@@H]5CO[C@@H](C)O[C@H]5[C@H](O)[C@H]3O)[C@H]3COC(=O)[C@H]23)OCO4)cc(OC)c1O [etoposide]
metabolic heterogeneity of lipid synthesis activity (Cv of single-cell d-PA metabolites) (A375 cells; 24 hours drug): significantly decreased lipid synthesis heterogeneity
